In the NIST ThermoML archive (doi:10.1021/je900124n):
Several values for one entry are separate records, joined by “and”; a condition that tells them apart may be missing. Identical values can stand only once. Numbers after ± are expanded uncertainties.

Conditions: Fluid (supercritical or subcritical phases), Buoyancy - hydrostatic balance with magnetic suspension - two sinkers

CCC [propane]
Conditions | mass density
460 K, 1046.1 kPa | 12.5822 ± 0.0038 kg/m3
460 K, 1046.4 kPa | 12.585 ± 0.0038 kg/m3
460 K, 1046.5 kPa | 12.5879 ± 0.0038 kg/m3
460 K, 1830.3 kPa | 22.7747 ± 0.02 kg/m3
460 K, 1830.7 kPa | 22.7788 ± 0.02 kg/m3 and 22.7791 ± 0.02 kg/m3
460 K, 1830.9 kPa | 22.7814 ± 0.02 kg/m3
460 K, 2892.4 kPa | 37.7704 ± 0.022 kg/m3 and 37.7706 ± 0.022 kg/m3
460 K, 2892.5 kPa | 37.7721 ± 0.022 kg/m3 and 37.7722 ± 0.022 kg/m3
460 K, 2892.6 kPa | 37.7743 ± 0.022 kg/m3
460 K, 4123 kPa | 57.2169 ± 0.025 kg/m3
460 K, 4123.1 kPa | 57.2175 ± 0.025 kg/m3
460 K, 4123.4 kPa | 57.2232 ± 0.025 kg/m3
460 K, 4123.6 kPa | 57.2271 ± 0.025 kg/m3
460 K, 4123.8 kPa | 57.2284 ± 0.025 kg/m3
460 K, 4978.5 kPa | 72.26 ± 0.012 kg/m3
460 K, 4978.6 kPa | 72.2622 ± 0.012 kg/m3
460 K, 6345.6 kPa | 99.2922 ± 0.016 kg/m3 [middle of 4 runs]
460 K, 8445 kPa | 147.718 ± 0.022 kg/m3 and 147.719 ± 0.022 kg/m3 and 147.717 ± 0.022 kg/m3
460 K, 8445.1 kPa | 147.721 ± 0.022 kg/m3
460 K, 8731.7 kPa | 154.767 ± 0.037 kg/m3
460 K, 8731.9 kPa | 154.768 ± 0.037 kg/m3
460 K, 8732 kPa | 154.77 ± 0.037 kg/m3 and 154.768 ± 0.037 kg/m3
460 K, 11420 kPa | 218.352 ± 0.048 kg/m3 [middle of 8 runs]
460.01 K, 687.74 kPa | 8.1493 ± 0.0033 kg/m3
460.01 K, 687.75 kPa | 8.1496 ± 0.0033 kg/m3 and 8.1495 ± 0.0033 kg/m3
460.01 K, 1046.4 kPa | 12.5877 ± 0.0038 kg/m3
460.01 K, 1046.6 kPa | 12.591 ± 0.0038 kg/m3
460.01 K, 4978.7 kPa | 72.2625 ± 0.012 kg/m3
460.01 K, 4978.8 kPa | 72.2648 ± 0.012 kg/m3
460.01 K, 4978.9 kPa | 72.2665 ± 0.012 kg/m3 [middle of 4 runs]
460.01 K, 8434.9 kPa | 147.459 ± 0.036 kg/m3
460.01 K, 8435 kPa | 147.46 ± 0.036 kg/m3
460.01 K, 8435.1 kPa | 147.462 ± 0.036 kg/m3 and 147.464 ± 0.036 kg/m3 and 147.461 ± 0.036 kg/m3
460.01 K, 8435.2 kPa | 147.464 ± 0.036 kg/m3 and 147.463 ± 0.036 kg/m3 and 147.466 ± 0.036 kg/m3
480 K, 716.12 kPa | 8.1077 ± 0.0033 kg/m3
480 K, 716.13 kPa | 8.1078 ± 0.0033 kg/m3 and 8.1079 ± 0.0033 kg/m3 and 8.108 ± 0.0033 kg/m3
480 K, 1038.1 kPa | 11.8882 ± 0.0037 kg/m3
480 K, 1924.9 kPa | 22.769 ± 0.018 kg/m3 and 22.7696 ± 0.018 kg/m3
480 K, 1925 kPa | 22.771 ± 0.018 kg/m3
480 K, 1925.1 kPa | 22.7716 ± 0.018 kg/m3 and 22.7708 ± 0.018 kg/m3
480 K, 3069 kPa | 37.9021 ± 0.021 kg/m3
480 K, 3069.2 kPa | 37.9044 ± 0.021 kg/m3 and 37.905 ± 0.021 kg/m3
480 K, 3069.5 kPa | 37.9086 ± 0.021 kg/m3
480 K, 3069.6 kPa | 37.9115 ± 0.021 kg/m3
480 K, 4376.6 kPa | 56.9392 ± 0.01 kg/m3
480 K, 4376.8 kPa | 56.9424 ± 0.01 kg/m3
480 K, 4377.1 kPa | 56.9487 ± 0.01 kg/m3
480 K, 4377.2 kPa | 56.9487 ± 0.01 kg/m3
480 K, 4377.6 kPa | 56.955 ± 0.01 kg/m3
480 K, 5340.5 kPa | 72.2831 ± 0.012 kg/m3 and 72.2827 ± 0.012 kg/m3
480 K, 5340.6 kPa | 72.285 ± 0.012 kg/m3
480 K, 6880.9 kPa | 99.2607 ± 0.016 kg/m3 and 99.2626 ± 0.016 kg/m3
480 K, 6881 kPa | 99.2628 ± 0.016 kg/m3
480 K, 9330.8 kPa | 147.276 ± 0.033 kg/m3 and 147.278 ± 0.033 kg/m3
480 K, 9330.9 kPa | 147.278 ± 0.033 kg/m3 and 147.275 ± 0.033 kg/m3
480 K, 9331 kPa | 147.279 ± 0.033 kg/m3
480 K, 9343.8 kPa | 147.548 ± 0.022 kg/m3
480 K, 9343.9 kPa | 147.549 ± 0.022 kg/m3 and 147.552 ± 0.022 kg/m3
480 K, 9344 kPa | 147.551 ± 0.022 kg/m3
480 K, 9344.1 kPa | 147.55 ± 0.022 kg/m3
480 K, 9689.8 kPa | 154.575 ± 0.034 kg/m3
480 K, 9690 kPa | 154.576 ± 0.034 kg/m3
480 K, 9690.1 kPa | 154.579 ± 0.034 kg/m3
480 K, 9690.2 kPa | 154.581 ± 0.034 kg/m3 and 154.58 ± 0.034 kg/m3
480 K, 13007 kPa | 218.012 ± 0.041 kg/m3 and 218.013 ± 0.041 kg/m3 and 218.014 ± 0.041 kg/m3
480.01 K, 399.65 kPa | 4.4746 ± 0.0029 kg/m3 and 4.4747 ± 0.0029 kg/m3 and 4.4744 ± 0.0029 kg/m3
480.01 K, 1038.8 kPa | 11.899 ± 0.0037 kg/m3
480.01 K, 1039.1 kPa | 11.9024 ± 0.0037 kg/m3
480.01 K, 1039.3 kPa | 11.9056 ± 0.0037 kg/m3
480.01 K, 1041.9 kPa | 11.9354 ± 0.0037 kg/m3
480.01 K, 5340.5 kPa | 72.2834 ± 0.012 kg/m3 and 72.2836 ± 0.012 kg/m3
480.01 K, 5340.6 kPa | 72.2841 ± 0.012 kg/m3 and 72.2848 ± 0.012 kg/m3 and 72.2843 ± 0.012 kg/m3
480.01 K, 6880.9 kPa | 99.2609 ± 0.016 kg/m3 and 99.2601 ± 0.016 kg/m3
480.01 K, 9330.9 kPa | 147.277 ± 0.033 kg/m3
480.01 K, 9331 kPa | 147.28 ± 0.033 kg/m3 and 147.281 ± 0.033 kg/m3
480.01 K, 13007 kPa | 218.014 ± 0.041 kg/m3
480.01 K, 13008 kPa | 218.016 ± 0.041 kg/m3
500 K, 415.04 kPa | 4.4539 ± 0.0029 kg/m3 and 4.454 ± 0.0029 kg/m3
500 K, 415.05 kPa | 4.454 ± 0.0029 kg/m3
500 K, 744.3 kPa | 8.0688 ± 0.0033 kg/m3
500 K, 744.34 kPa | 8.0689 ± 0.0033 kg/m3
500 K, 1058.4 kPa | 11.5875 ± 0.0037 kg/m3 and 11.5868 ± 0.0037 kg/m3
500 K, 2016.7 kPa | 22.7375 ± 0.018 kg/m3
500 K, 2016.8 kPa | 22.7381 ± 0.018 kg/m3
500 K, 2016.9 kPa | 22.7385 ± 0.018 kg/m3
500 K, 2017 kPa | 22.7394 ± 0.018 kg/m3
500 K, 3242.8 kPa | 37.9947 ± 0.019 kg/m3
500 K, 3243.6 kPa | 38.0051 ± 0.019 kg/m3
500 K, 3243.7 kPa | 38.0059 ± 0.019 kg/m3 and 38.0062 ± 0.019 kg/m3
500 K, 3243.9 kPa | 38.0086 ± 0.019 kg/m3
500 K, 4643.7 kPa | 56.9284 ± 0.01 kg/m3
500 K, 4644 kPa | 56.9317 ± 0.01 kg/m3
500 K, 4644.4 kPa | 56.9376 ± 0.01 kg/m3
500 K, 4644.5 kPa | 56.9398 ± 0.01 kg/m3
500 K, 4644.6 kPa | 56.941 ± 0.01 kg/m3
500 K, 7408.7 kPa | 99.2014 ± 0.016 kg/m3 and 99.1992 ± 0.016 kg/m3
500 K, 7408.8 kPa | 99.1996 ± 0.016 kg/m3 and 99.1999 ± 0.016 kg/m3
500 K, 10218 kPa | 147.109 ± 0.031 kg/m3 and 147.114 ± 0.031 kg/m3
500 K, 10219 kPa | 147.115 ± 0.031 kg/m3
500 K, 10234 kPa | 147.392 ± 0.022 kg/m3 and 147.391 ± 0.022 kg/m3 and 147.393 ± 0.022 kg/m3
500 K, 10637 kPa | 154.378 ± 0.032 kg/m3 [middle of 5 runs]
500 K, 14582 kPa | 217.649 ± 0.038 kg/m3 and 217.645 ± 0.038 kg/m3 and 217.644 ± 0.038 kg/m3
500 K, 14583 kPa | 217.649 ± 0.038 kg/m3
500.01 K, 415.04 kPa | 4.4539 ± 0.0029 kg/m3
500.01 K, 744.34 kPa | 8.069 ± 0.0033 kg/m3
500.01 K, 744.35 kPa | 8.069 ± 0.0033 kg/m3
500.01 K, 1058.3 kPa | 11.5848 ± 0.0037 kg/m3
500.01 K, 1058.7 kPa | 11.5888 ± 0.0037 kg/m3
500.01 K, 1059.3 kPa | 11.5965 ± 0.0037 kg/m3
500.01 K, 5697.7 kPa | 72.2794 ± 0.012 kg/m3 and 72.2805 ± 0.012 kg/m3 and 72.2784 ± 0.012 kg/m3
500.01 K, 5697.8 kPa | 72.2813 ± 0.012 kg/m3 [middle of 4 runs]
500.01 K, 5697.9 kPa | 72.2822 ± 0.012 kg/m3
500.01 K, 10218 kPa | 147.112 ± 0.031 kg/m3 and 147.116 ± 0.031 kg/m3
500.01 K, 10219 kPa | 147.118 ± 0.031 kg/m3 and 147.116 ± 0.031 kg/m3
500.01 K, 14582 kPa | 217.641 ± 0.038 kg/m3 and 217.644 ± 0.038 kg/m3
500.01 K, 14583 kPa | 217.647 ± 0.038 kg/m3
